The results in this text go back to patent publication US20120213789A1, “New Molecular Target for Treatment of Cancer” (priority 2001, published 2012).

The test system of assay [1] is MLC-SV40 immortalized normal cells. The experiment in a line: Dose-response kinetics of UC28 protein expression by flow cytometry. The assay is classed as cell-based. Conditions: 0.5 to 25 mM SPB. On the procedure:
Cells were grown to 70-80% confluence at 37° C. and 5% CO2 in T-75 tissue culture plastic flasks. SPB stock solution was added to final concentrations of 0.5, 5.0, 10.0, and 25.0 mM in appropriate fresh media to the cell cultures. Cells were incubated at 37° C. and 5% CO2 for 72 hours. Attached cells were then harvested using a solution of 0.05% trypsin and 0.53 mM EDTA (Invitrogen Corp.). Attached cells were then pooled with any the detached cells and washed with PBS pH 7.2. Cell numbers and percent viability were determined using Trypan blue dye exclusion and a hemacytometer. At the time of their use in an experiment the viability was usually about 85% for untreated cells and a range of about 15-70% for treated cells, with the lower viabilities found at higher SPB concentrations (Thompson C, 1995; Cory et al., 1998; van Engeland et al., 1996). UC28(C) is 2.14 mg/ml rabbit polyclonal aliquot directed against the inventors' UC28 patented biomarker developed by UCor R&D gene discovery program. The Antibody was produced against a […] (AA) synthetic peptide from the predicted AA sequence (AA 21-37) UCor, Inc. 840 Research Parkway Oklahoma City, Okla. 73104. Goat Anti-Rabbit CY5 polyclonal Fluorchrome was used as the secondary conjugate for UC28 C rabbit polyclonal antibody and a background control for UC28 C polyclonal. […]
In general terms: In flow cytometry, cells or beads pass a laser one at a time.

In the next assay the test system is LNCaP Prostate Cell Line. Kind of assay: Dual label UC28/AnnexinV flow cytometry after SPB treatment. The format is cell-based, human. Conditions: for Total AnnexV / Total UC28C: 72 hours, UC28-GAR-CY5/AnnexV-FITC. On the procedure: (§1) Cells were grown to 70-80% confluence at 37° C. and 5% CO2 in T-75 tissue culture plastic flasks. SPB stock solution was added to final concentrations of 0.5, 5.0, 10.0, and 25.0 mM in appropriate fresh media to the cell cultures. Cells were incubated at 37° C. and 5% CO2 for 72 hours. Attached cells were then harvested using a solution of 0.05% trypsin and 0.53 mM EDTA (Invitrogen Corp.). Attached cells were then pooled with any the detached cells and washed with PBS pH 7.2. Cell numbers and percent viability were determined using Trypan blue dye exclusion and a hemacytometer. At the time of their use in an experiment the viability was usually about 85% for untreated cells and a range of about 15-70% for treated cells, with the lower viabilities found at higher SPB concentrations (Thompson C, 1995; Cory et al., 1998; van Engeland et al., 1996).
(§2) VO1 Apoptosis Detection Kit contains: (1) Fluorocein-isothiocyante (FITC) conjugated AnnexinV [AnnexinV01] 1 ml (2) Propidium Iodide [Annex-Pi] 2.0 ml (3) 4× Binding Buffer [Annex-B] 20.0 ml. Vendor is CalTag Laboratories, Inc., 1849 Bayshore Boulevard #200 Burlingame, Calif. 94010.
(§3) UC28(C) is 2.14 mg/ml rabbit polyclonal aliquot directed against the inventors' UC28 patented biomarker developed by UCor R&D gene discovery program. The Antibody was produced against a twenty amino acid (AA) synthetic peptide from the predicted AA sequence (AA 21-37) UCor, Inc. 840 Research Parkway Oklahoma City, Okla. 73104.
(§4) Goat Anti-Rabbit CY5 polyclonal Fluorchrome was used as the secondary conjugate for UC28 C rabbit polyclonal antibody and a background control for UC28 C polyclonal. Vendor is Jackson ImmunoResearch Laboratories, Inc. 872 West Baltimore Pike, P.O. Box 9 West Grove, Pa. 19390.
(§5) MsIgG-FITC mouse conjugated-FITC was used for background control for AnnexinV01. Vendor is Becicman Coulter, Inc. Diagnostic Division, 11800 SW 147th Ave. M/S 42-003, P.O. Box 169015, Miami, Floridia 33116-9015.
(§6) A Coulter Elite engineered with a triple laser system was used to analyze all samples. Coulter control beads were used to align lasers for the dual label testing of cell samples. Laser alignment was required for both the Argon (488 nm line) laser and HeNe (633 nm line) laser. These alignments were performed prior to all measurements with the Argon laser (488 nm line) using fluorophores for FITC, RPE, PI and the HeNe laser (633 nm line) for the Cy5 fluorophores being used for the experiments described below. The histographs, voltage settings, gates, color compensation, and pressures were established prior to all sample processing. […]
(§7) UC28 and Annexin V were co-labeled in the three cell lines to assess the induction of UC28 by SPB and its correlation to the induction of apoptosis. […] It may be noted that in previously published experiments, AnnexinV and PI were run in combination with several prostate cancer cell lines, one of which was LNCaP, but not with C4-2B or MLC-SV40. It was determined that they produced similar dose-response kinetics when exposed to 0.5-25 mM of SPB for 72 hours (Ng et al., 1989). That is, as the dose of SPB increased, so did the membrane perturbation events measured by these two methods.

The subject of assay [2] is ML-SV40 Prostat Cell Line. Kind of assay: Dual label UC28 C/AnnexinV flow cytometry after SPB treatment. The format is cell-based. Particulars: for Total AnnexV / Total UC28C: 72 hours, ML-SV40, UC28-GAR-CY5/AnnexV-FITC. The method, then:
as §1, §2, §3, §4, §5, §6, §7

Setting [3] is: SPB, MLC-SV40, summary of Table 5.

Molecules are shown by their SMILES.

Consider `O=C([O-])CCCc1ccccc1.[Na+]` [SPB, 4-Phenylbutyric Acid, Sodium Salt], for which the “UC28 membrane protein expression” value in assay [1] is recorded as “do not over express”. In addition, the “Total AnnexV” value is listed as 10.6% in the assay on LNCaP Prostate Cell Line (0.5 mM SPB); 44.7% in the assay on LNCaP Prostate Cell Line (5.0 mM SPB); 33.6% in the assay with LNCaP Prostate Cell Line (10 mM SPB); 89.2% with LNCaP Prostate Cell Line (25 mM SPB); 11.4% in assay [2] (0.5 mM SPB); 90.2% in assay [2] (5.0 mM SPB). Moreover, the “Total AnnexV” value in assay [2] (10 mM SPB) is 95.7%; in assay [2] (25 mM SPB), 90.7%. Besides, the “Total UC28C” value in the assay on LNCaP Prostate Cell Line (0.5 mM SPB) is 28.0%; with LNCaP Prostate Cell Line (5.0 mM SPB), 55.8%; in the assay on LNCaP Prostate Cell Line (10 mM SPB), 66.4%; in the assay with LNCaP Prostate Cell Line (25 mM SPB) it was 67.4%; in assay [2] (0.5 mM SPB) it was 8.6%; in assay [2] (5.0 mM SPB) it was 6.8%. Also, the “Total UC28C” value in assay [2] (10 mM SPB) was 6.8%; in assay [2] (25 mM SPB) it was 9.3%. For the same compound, the UC28 up regulation result with LNCaP Prostate Cell Line (SPB, summary of Table 5) is recorded as “up regulated”; in assay [2] (setting [3]), “not”. Further, the induction of apoptosis result is recorded as “induced” in the assay with LNCaP Prostate Cell Line (SPB, summary of Table 5) and “induced” in assay [2] (setting [3]).
